Source: the NIST ThermoML archive (doi:10.1016/j.jct.2015.08.031)
Numbers after ± are expanded uncertainties.

Settings: 101.33 kPa, Crystal, relaxation calorimeter

O[C@H]1[C@H](O)[C@H](O)OC[C@H]1O [β-D-arabinopyranose]
Settings	molar entropy [J/K/mol]
0.5 K	0.0007089 ± 8.4e-05
1 K	0.001551 ± 0.00017
1.5 K	0.002666 ± 0.00028
2 K	0.004203 ± 0.00045
2.5 K	0.006327 ± 0.00067
3 K	0.009226 ± 0.00097
3.5 K	0.01311 ± 0.0014
4 K	0.01824 ± 0.0019
4.5 K	0.02488 ± 0.0026
5 K	0.03336 ± 0.0035
5.5 K	0.04406 ± 0.0046
6 K	0.0574 ± 0.006
6.5 K	0.07383 ± 0.0077
7 K	0.09385 ± 0.0098
7.5 K	0.118 ± 0.012
8 K	0.1468 ± 0.015
8.5 K	0.1809 ± 0.019
9 K	0.2206 ± 0.023
9.5 K	0.2662 ± 0.028
10 K	0.3182 ± 0.033
11 K	0.4423 ± 0.046
12 K	0.5944 ± 0.062
13 K	0.7758 ± 0.081
14 K	0.9866 ± 0.1
15 K	1.227 ± 0.13
16 K	1.496 ± 0.16
17 K	1.793 ± 0.19
18 K	2.116 ± 0.22
19 K	2.466 ± 0.26
20 K	2.839 ± 0.3
25 K	5.013 ± 0.31
30 K	7.582 ± 0.46
35 K	10.43 ± 0.64
40 K	13.47 ± 0.82
45 K	16.66 ± 1
50 K	19.95 ± 1.2
55 K	23.28 ± 1.4
60 K	26.64 ± 1.6
65 K	30 ± 1.8
70 K	33.38 ± 2
75 K	36.77 ± 2.2
80 K	40.16 ± 2.4
85 K	43.54 ± 2.7
90 K	46.93 ± 2.9
95 K	50.31 ± 3.1
100 K	53.68 ± 3.3
110 K	60.41 ± 3.7
120 K	67.11 ± 4.1
130 K	73.78 ± 4.5
140 K	80.41 ± 4.9
150 K	87.01 ± 5.3
160 K	93.58 ± 5.7
170 K	100.12 ± 6.1
180 K	106.62 ± 6.5
190 K	113.1 ± 6.9
200 K	119.55 ± 7.3
210 K	125.98 ± 7.7
220 K	132.38 ± 8.1
230 K	138.76 ± 8.4
240 K	145.12 ± 8.8
250 K	151.45 ± 9.2
260 K	157.77 ± 9.6
270 K	164.07 ± 10
273.15 K	166.06 ± 10
280 K	170.36 ± 10
290 K	176.63 ± 11
298.15 K	181.72 ± 11
300 K	182.88 ± 11
